Measured values taken from US6639121B1, “Inducible cancer model to study the molecular basis of host tumor cell interactions in vivo” (Dana-Farber Cancer Institute, Inc., priority 1999, dated 2003).

Columns and labels:
[1] = tested on: Tyr/Tet-RAS INK4a−/− mice; assay: Doxycycline-induced melanoma development in transgenic mice; type: in vivo, mouse; conditions: doxycycline in the drinking water from weaning
Description: To develop a cancer model in which dominantly acting oncoproteins are somatically regulated in vivo, transgenic mouse lines harboring the reverse tetracycline transactivator^2 under the control of the tyrosinase gene promoter-enhancer elements (designated Tyr-rtTA) and another containing the H-RAS^V12G open reading frame driven by a minimal promoter containing multimerized tet-operons.^2,3 (designated Tet-RAS) were inter-crossed with INK4a+/− mice to generate cohorts of single and double transgenic mice (designated Tyr/Tet-RAS) homozygous null for INK4a. Upon weaning, a subset of single and double transgenic INK4a −/− mice were administered doxycycline in the drinking water^4. In the doxycycline-treated group, 10 of 40 Tyr/Tet-RAS INK4a−/− mice developed melanomas with an average latency of 60 days (FIG. 1A). […] The Tyr/Tet-RAS INK4a−/− melanomas shared all of the macroscopic features of the constitutive Tyr-RAS INK4a−/− melanomas 5, manifesting as amelanotic, invasive and highly vascular tumors—features reminiscent of nodular-type melanoma in humans (for example, see FIGS. 2A&B).
Production of the transgenic mice. The reverse tetracycline transactivator (rtTA) is a 1050 bp EcoRI/BamHI fragment isolated from pUHD172-1neo^2. The Tet promoter contains a XhoI/EcoRI fragment of CMV minimal promoter linked to the tet operator sequences^2. […]

[2] = tested on: Tyr/Tet-RAS INK4a−/− melanoma cell lines; assay: SCID explant tumorigenicity of melanoma cell lines; type: in vivo, mouse; conditions: SCID mice treated with doxycycline
Description: To this end, we first assessed the impact of doxycycline withdrawal in different Tyr/Tet-RAS INK4a−/− tumor derived cell lines in cell culture. […] The derivative melanoma cell lines remained doxycycline-responsive as shown by their strict doxycycline-dependency for tumorigenic potential in SCID mice. Specifically, subcutaneous injection of purified Tyr/Tet-RAS INK4a−/− melanoma cell lines yielded tumors in SCID mice treated with doxycycline with 100% efficiency, while those mice not receiving doxycycline remained tumor-free after many months of observation (FIG. 3A). […] On the other hand, the data is also consistent with the possibility that tumor regression following doxycycline withdrawal may reflect a continued requirement for RAS in promoting and sustaining non-cell-autonomous tumor-host interactions that are essential for tumor growth and maintenance.
Primary tumors, derivative cell lines and SCID explant tumors. Transgenic mice were fed doxycycline drinking water (2 mg/ml sucrose water) and observed for spontaneous tumor development. Primary tumors were adapted to culture by mechanical mincing with sterilized razor blades and brief trypsinization and maintained on RPMI media containing 10% serum and supplemented with doxycycline (2 μg/ml media)^4. […]

C[C@H]1c2cccc(O)c2C(=O)C2=C(O)[C@]3(O)C(=O)C(C(N)=O)=C(O)[C@@H](N(C)C)[C@@H]3[C@@H](O)[C@@H]21 [doxycycline]
average latency of melanoma development [1]: 60 days
efficiency of tumor formation after subcutaneous injection [2]: 100%
